This note sets out measurements from paper PMC7001580 (Nature chemical biology, 2016).

Series [1] has as its target T1, YMR027W (Saccharomyces cerevisiae, UniProt Q04371, N255A).
T1 sequence (Q04371 1-470 N255A): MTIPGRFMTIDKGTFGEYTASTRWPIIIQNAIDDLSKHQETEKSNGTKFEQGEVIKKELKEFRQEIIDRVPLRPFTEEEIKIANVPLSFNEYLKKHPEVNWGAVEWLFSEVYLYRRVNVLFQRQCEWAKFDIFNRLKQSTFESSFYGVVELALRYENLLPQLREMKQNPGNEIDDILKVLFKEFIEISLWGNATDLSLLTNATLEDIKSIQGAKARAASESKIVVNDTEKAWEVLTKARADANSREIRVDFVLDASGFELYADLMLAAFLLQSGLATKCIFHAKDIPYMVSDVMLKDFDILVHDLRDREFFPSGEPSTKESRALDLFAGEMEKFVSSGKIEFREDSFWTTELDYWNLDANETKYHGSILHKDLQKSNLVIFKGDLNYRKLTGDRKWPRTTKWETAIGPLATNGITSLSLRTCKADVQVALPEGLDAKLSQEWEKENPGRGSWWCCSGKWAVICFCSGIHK
Briefly: phosphatase activity compared with wild type. In kind it is biochemical. Conditions: alanine mutant of signature residue.

In series [2] the target is T2, At2g17340 (Arabidopsis thaliana, UniProt Q949P3, N221A).
T2 sequence (Q949P3 1-367 N221A limits assumed): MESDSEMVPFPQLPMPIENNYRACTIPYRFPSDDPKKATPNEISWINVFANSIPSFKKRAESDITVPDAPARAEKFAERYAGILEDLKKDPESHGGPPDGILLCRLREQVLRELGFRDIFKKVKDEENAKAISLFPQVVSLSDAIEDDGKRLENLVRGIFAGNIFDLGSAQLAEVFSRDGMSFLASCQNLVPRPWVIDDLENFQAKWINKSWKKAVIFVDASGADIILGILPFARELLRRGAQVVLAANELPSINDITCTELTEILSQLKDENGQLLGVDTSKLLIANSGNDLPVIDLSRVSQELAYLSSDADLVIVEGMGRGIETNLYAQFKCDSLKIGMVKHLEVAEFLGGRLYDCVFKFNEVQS
The series is described as follows: phosphatase activity compared with wild type. In kind it is biochemical. Conditions: alanine mutant of signature residue.

Series [3] concerns the target T3, At2g17340 (Arabidopsis thaliana, UniProt Q949P3, D220A).
T3 sequence (Q949P3 1-367 D220A limits assumed): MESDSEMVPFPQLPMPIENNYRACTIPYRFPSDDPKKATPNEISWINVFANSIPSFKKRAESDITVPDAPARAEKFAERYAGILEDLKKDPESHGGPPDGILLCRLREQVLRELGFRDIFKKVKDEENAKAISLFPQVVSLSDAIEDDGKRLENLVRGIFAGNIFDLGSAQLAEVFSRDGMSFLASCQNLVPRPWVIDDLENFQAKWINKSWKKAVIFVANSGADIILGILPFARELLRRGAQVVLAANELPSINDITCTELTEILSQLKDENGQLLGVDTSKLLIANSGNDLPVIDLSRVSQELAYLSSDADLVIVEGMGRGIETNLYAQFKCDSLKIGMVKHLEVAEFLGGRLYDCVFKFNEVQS
The series is described as follows: phosphatase activity compared with wild type. The format is biochemical. To be noted: alanine mutant of signature residue.

The target of series [4] is T4, YMR027W (Saccharomyces cerevisiae, UniProt Q04371, D254A).
T4 sequence (Q04371 1-470 D254A): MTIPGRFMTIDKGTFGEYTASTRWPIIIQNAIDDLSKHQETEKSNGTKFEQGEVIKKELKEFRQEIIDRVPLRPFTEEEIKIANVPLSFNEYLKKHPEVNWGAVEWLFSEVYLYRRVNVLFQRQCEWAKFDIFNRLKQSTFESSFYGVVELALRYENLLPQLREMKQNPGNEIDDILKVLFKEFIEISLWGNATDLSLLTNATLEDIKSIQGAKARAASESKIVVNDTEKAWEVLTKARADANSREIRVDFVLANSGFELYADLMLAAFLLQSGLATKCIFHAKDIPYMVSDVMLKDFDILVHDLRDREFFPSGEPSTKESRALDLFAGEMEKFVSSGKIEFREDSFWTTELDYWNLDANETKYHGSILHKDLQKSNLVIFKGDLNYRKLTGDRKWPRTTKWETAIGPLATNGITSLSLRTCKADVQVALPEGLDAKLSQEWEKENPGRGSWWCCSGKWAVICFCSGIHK
Briefly: phosphatase activity compared with wild type. In kind it is biochemical. To be noted: alanine mutant of signature residue.

Series [5] concerns the target T5, At2g17340 (Arabidopsis thaliana, UniProt Q949P3).
T5 sequence (Q949P3 1-367 limits assumed): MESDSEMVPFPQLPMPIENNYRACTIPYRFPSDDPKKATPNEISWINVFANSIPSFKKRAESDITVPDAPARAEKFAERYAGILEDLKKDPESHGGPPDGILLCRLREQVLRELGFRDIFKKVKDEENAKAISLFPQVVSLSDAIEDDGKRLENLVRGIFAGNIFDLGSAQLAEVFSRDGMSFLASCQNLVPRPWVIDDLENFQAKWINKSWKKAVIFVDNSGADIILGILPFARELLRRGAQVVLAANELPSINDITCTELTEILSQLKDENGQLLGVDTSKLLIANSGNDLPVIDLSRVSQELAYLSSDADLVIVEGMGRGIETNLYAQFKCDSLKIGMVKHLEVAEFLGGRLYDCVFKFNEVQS
Briefly: phosphate release, Malachite Green, Hill fit. The format is biochemical. To be noted: 0.2 mM Ni2+, 30 °C; sigmoidal kinetics.

A further series deals with T6, PH1575 (Pyrococcus horikoshii, UniProt O59272).
T6 sequence (O59272 1-287): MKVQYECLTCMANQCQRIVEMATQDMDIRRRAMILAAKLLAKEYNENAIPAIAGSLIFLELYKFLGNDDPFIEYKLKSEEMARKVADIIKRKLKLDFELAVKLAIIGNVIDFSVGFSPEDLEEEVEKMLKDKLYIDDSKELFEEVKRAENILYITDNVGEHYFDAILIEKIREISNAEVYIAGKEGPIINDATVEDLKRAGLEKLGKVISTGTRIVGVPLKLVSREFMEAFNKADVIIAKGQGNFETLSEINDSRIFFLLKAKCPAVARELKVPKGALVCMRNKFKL
Briefly: phosphate release, Malachite Green, Michaelis-Menten fit. The format is biochemical. Conditions: Ni2+ as preferred metal.

Series [6] deals with T7, YMR027W (Saccharomyces cerevisiae, UniProt Q04371).
T7 sequence (Q04371 1-470): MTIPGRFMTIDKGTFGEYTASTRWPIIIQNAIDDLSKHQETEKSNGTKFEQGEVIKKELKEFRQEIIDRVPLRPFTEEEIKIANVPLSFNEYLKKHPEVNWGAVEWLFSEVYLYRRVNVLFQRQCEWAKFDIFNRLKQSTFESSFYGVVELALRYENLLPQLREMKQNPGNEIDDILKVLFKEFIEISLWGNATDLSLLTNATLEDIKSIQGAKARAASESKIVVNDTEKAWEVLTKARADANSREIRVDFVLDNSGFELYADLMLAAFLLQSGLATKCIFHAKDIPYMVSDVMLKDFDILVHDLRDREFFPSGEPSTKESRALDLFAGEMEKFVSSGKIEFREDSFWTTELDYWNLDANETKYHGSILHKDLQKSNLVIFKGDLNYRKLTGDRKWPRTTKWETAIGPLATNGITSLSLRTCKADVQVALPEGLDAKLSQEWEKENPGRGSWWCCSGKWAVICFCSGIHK
The series is described as follows: crystal structure, soaking with […] fructose 6-phosphate, […] Å. In kind it is binding. To be noted: Mg2+ bound, pH 5.5; active site; protein pretreated with chymotrypsin.

The series “SEC” deals with the molecule itself. The series is described as follows: SEC.

In the case of `O=[N+]([O-])c1ccc(OP(=O)(O)O)cc1` [pNPP, p-nitrophenyl phosphate], the catalytic activity result at YMR027W [1] is “signature residues of YMR027W (Asp254, Asn255, and Asp292)”; on At2g17340 [2], “At2g17340 (Asp220, Asn221, and Asp256) abolished catalytic activity”; at At2g17340 [3], “At2g17340 (Asp220, Asn221, and Asp256) abolished catalytic activity”; on YMR027W [4], “signature residues of YMR027W (Asp254, Asn255, and Asp292)”. As for `O=P(O)(O)OC[C@H]1OC(O)C[C@@H]1O` (some centres unmarked) [2-deoxyribose 5-phosphate], the S0.5 result on At2g17340 [5] is “At2g17340 showed sigmoidal kinetics with ribose 5-phosphate or 2-deoxyribose 5-phosphate”. The same measure, in the same setting: to `O=P(O)(O)OC[C@H]1OC(O)[C@H](O)[C@@H]1O` (some centres unmarked) [ribose 5-phosphate] belongs “At2g17340 showed sigmoidal kinetics with ribose 5-phosphate or 2-deoxyribose 5-phosphate”. Turning to `Nc1ncnc2c1ncn2[C@@H]1O[C@H](COP(=O)(O)OP(=O)(O)O)[C@@H](O)[C@H]1O` [ADP], at PH1575, the kinetic constants result was “the kinetic constants for 8-oxo-dGTP were close to those for ADP”. Still for that read-out and setting: next, `Nc1nc2c([nH]c(=O)n2[C@H]2C[C@H](O)[C@@H](COP(=O)(O)OP(=O)(O)OP(=O)(O)O)O2)c(=O)[nH]1` [8-oxo-dGTP]: “the kinetic constants for 8-oxo-dGTP were close to those for ADP”. On to `O=P(O)(O)OC[C@H]1OC(O)(CO)[C@@H](O)[C@@H]1O` (some centres unmarked) [F6P, fructose 6-phosphate], for which, at YMR027W [6], the “crystal structure, soaking with 10 mM fructose 6-phosphate, 1.77 Å” value is “Crystal soaking using YMR027W and the substrate fructose 6-phosphate”.

B1: Archaeoglobus fulgidus DUF89 subfamily I protein AF1104 (enzyme, A. fulgidus)
chain: MKISPLCPSCLLGRVYYEAKLVTDDEDLISQCVDESLKILAENYSSRPINAHLATRIHRRVYEILGVEDPYAEVKARANEVARQVLPLAKEIVEGSDDPFKTAVIVSIVGNNFDYGVQGHKVVEEEFRDFLKRKVQEGLKINDTERIKELSSGKVVYLTDNAGEIFFDTLLMKEIKRRCEKLTAVVRGRPIISDATIEDARLARVDKIADELLTNGKGAIGIIMDELPDETRKALEEADLIVAKGMANYECLSDGSLKPIAFLLTAKCEPVARDIGVNVGDMVAKVVE
As to B1, the “stoichiometry N” value in “SEC” stood at 2.

B2: Pyrococcus horikoshii DUF89 subfamily I protein PH1575 (enzyme, P. horikoshii)
chain: MKVQYECLTCMANQCQRIVEMATQDMDIRRRAMILAAKLLAKEYNENAIPAIAGSLIFLELYKFLGNDDPFIEYKLKSEEMARKVADIIKRKLKLDFELAVKLAIIGNVIDFSVGFSPEDLEEEVEKMLKDKLYIDDSKELFEEVKRAENILYITDNVGEHYFDAILIEKIREISNAEVYIAGKEGPIINDATVEDLKRAGLEKLGKVISTGTRIVGVPLKLVSREFMEAFNKADVIIAKGQGNFETLSEINDSRIFFLLKAKCPAVARELKVPKGALVCMRNKFKL
On to B2, for which the “stoichiometry N” value in “SEC” turned out to be 2.
